The values below come from patent US6685617B1, “Inhibitors of α4β1 mediated cell adhesion” (Pharmacia & Upjohn Company, priority 1998, dated 2004).

Structures can show the parent of a compound that is named as a salt. Some results are limits rather than exact numbers.

Assay [1] has as its target T1, α4β1 integrin (Jurkat T-cell adhesion to IL-1 stimulated endothelial cell monolayers) (Homo sapiens, UniProt P05556+P13612).
T1 construct: a T-cell line, Jurkat, known to express the α4β1 integrin; host or cells: Jurkat T-cell line
Put plainly: Jurkat-endothelial cell adhesion assay (Jurkat EC). Conditions: Jurkat cells on IL-1 stimulated human umbilical vein endothelial cells; read-out: JK/EC (Jurkat EC Assay IC50 value range). It counts as cell-based. The essentials:
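Adhesion was expressed as percent of compound-free fluorescence after 20 min at 37° C (following 5 min settling on ice) of BCECF-loaded Jurkat T cells on washed HUVEC monolayers. The endothelium, passage 6 or lower, had received 0.1 ng/ml recombinant IL-1 for 4 hr at 37° C; compound was premixed with the T cells, typically at 100, 20, 5 and 1.25 μM.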

Assay [2] addresses T2, α4β1 integrin (Jurkat cell adhesion to immobilized CS-1 derived peptide CLHPGEILDVPST) (Homo sapiens, UniProt P05556+P13612).
T2 construct: 100 μl of Jurkat cells (2.5×10^6 cells/ml) in DMEM plus BSA; host or cells: Jurkat T-cell line
As to the kind of experiment: Jurkat-CS-1 assay. In kind it is cell-based. Conditions: Jurkat cells on CS-1 peptide coated plates; read-out: JK/CS-1 (Jurkat CS-1 Assay IC50 value range). In a few lines: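 CS-1 peptide was SPDP-crosslinked onto HSA-coated plates and blocked with BSA. Jurkat cells (2.5×10^6 cells/ml) in DMEM/BSA were mixed with compound, generally at 100, 20, 5 and 1.25 μM, and allowed to adhere for 1 hr at 37° C. Bound cells were fixed, stained with toluidine blue and quantified by OD590.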

T1 sequence (P13612 34-1032): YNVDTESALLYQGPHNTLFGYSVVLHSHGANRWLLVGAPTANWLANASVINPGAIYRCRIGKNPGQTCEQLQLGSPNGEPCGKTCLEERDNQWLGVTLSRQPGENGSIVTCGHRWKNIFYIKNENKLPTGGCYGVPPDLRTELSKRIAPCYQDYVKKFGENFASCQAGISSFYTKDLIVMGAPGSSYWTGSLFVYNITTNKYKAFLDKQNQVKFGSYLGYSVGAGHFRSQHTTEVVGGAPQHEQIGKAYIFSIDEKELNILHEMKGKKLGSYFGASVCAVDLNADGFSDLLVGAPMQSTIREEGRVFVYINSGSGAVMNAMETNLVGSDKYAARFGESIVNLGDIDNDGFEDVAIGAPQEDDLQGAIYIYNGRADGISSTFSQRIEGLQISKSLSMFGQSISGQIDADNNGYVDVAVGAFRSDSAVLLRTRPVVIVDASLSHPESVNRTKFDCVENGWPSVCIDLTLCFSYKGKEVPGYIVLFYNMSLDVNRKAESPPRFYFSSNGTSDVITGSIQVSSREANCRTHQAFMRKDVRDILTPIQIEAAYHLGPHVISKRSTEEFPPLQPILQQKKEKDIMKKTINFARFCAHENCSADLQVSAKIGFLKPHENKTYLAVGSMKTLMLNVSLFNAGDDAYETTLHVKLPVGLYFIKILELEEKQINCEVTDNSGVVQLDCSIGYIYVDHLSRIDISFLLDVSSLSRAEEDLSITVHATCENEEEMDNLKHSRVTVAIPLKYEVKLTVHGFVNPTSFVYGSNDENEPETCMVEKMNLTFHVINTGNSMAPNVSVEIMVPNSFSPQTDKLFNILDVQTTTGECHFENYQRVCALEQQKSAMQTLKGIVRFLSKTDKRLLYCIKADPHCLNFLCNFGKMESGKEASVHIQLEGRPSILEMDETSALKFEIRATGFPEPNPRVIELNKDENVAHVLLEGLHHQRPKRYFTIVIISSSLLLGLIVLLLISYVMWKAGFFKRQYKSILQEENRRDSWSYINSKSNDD
T1 sequence (P05556 21-798): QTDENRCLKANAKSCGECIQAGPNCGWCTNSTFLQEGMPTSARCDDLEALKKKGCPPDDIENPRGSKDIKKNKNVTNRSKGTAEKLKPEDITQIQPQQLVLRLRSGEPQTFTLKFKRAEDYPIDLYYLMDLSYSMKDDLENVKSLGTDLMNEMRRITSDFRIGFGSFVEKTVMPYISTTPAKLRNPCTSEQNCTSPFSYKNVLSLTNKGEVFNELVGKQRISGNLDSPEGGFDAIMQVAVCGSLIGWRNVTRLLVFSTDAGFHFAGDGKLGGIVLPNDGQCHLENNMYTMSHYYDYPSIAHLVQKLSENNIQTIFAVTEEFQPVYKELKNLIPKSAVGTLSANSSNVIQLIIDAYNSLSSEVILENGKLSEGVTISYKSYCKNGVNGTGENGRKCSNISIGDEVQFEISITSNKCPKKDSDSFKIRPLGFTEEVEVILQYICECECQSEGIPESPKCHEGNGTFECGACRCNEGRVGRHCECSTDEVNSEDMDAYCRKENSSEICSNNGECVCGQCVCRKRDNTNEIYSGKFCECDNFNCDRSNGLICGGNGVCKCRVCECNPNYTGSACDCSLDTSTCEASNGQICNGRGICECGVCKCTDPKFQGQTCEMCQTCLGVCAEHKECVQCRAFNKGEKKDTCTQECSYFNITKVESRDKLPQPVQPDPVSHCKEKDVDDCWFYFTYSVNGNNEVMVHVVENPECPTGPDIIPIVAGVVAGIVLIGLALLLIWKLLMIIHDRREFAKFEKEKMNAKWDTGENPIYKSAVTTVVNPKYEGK
T2 sequence (P13612 34-1032): as the sequence (P13612 34-1032) above
T2 sequence (P05556 21-798): as the sequence (P05556 21-798) above

`CC(C)(C)OC(=O)N1CSC[C@H]1C(=O)N[C@@H](Cc1ccc(NC(=O)c2c(Cl)cccc2Cl)cc1)C(=O)O` (stereo in doubt) [Example 14, [R-(R*,S*)]-4-[[[1-Carboxy-2-[4-[(2,6-dichlorobenzoyl)amino]phenyl]ethyl]amino]carbonyl]-3-thiazolidinecarboxylic Acid 3-(1,1-Dimethylethyl)ester]: the IC50 in assay [1] is 250 to 1000 nM; in assay [2], 50 to 750 nM.

Consider `COC(=O)[C@@H](Cc1ccc(NC(=O)c2c(Cl)cccc2Cl)cc1)NC(=O)[C@H]1CSCN1C(=O)OC(C)(C)C` (stereo in doubt) [Example 26, [S-(R*,S*)]-4-[[[1-[4-[(2,6-Dichlorobenzoyl)amino]phenyl]methyl]-2-methoxy-2-oxoethyl]amino]carbonyl]-3-thiazolidinecarboxylic Acid 3-1,1-Dimethylethyl)ester], for which the values for the IC50 in assay [1] and in assay [2] were at least 1000 nM and at least 750 nM, respectively.

In the case of `CC(C)(C)OC(=O)N1CSC[C@@H]1C(=O)N[C@H](Cc1ccc(NC(=O)c2c(Cl)cccc2Cl)cc1)C(=O)O` (stereo in doubt) [Example 27, [S-(R*,S*)]-4-[[[1-Carboxy-2-[4-[(2,6-dichlorobenzoyl)amino]phenyl]ethyl]amino]carbonyl]-3-thiazolidinecarboxylic Acid 3-(1,1-Dimethylethyl)ester], the IC50 in assay [1] was at least 1000 nM; in assay [2], at least 750 nM.

For the compound `O=C(O)CCC(=O)N1CCSCC1C(=O)N[C@@H](Cc1ccc(OCc2c(Cl)cccc2Cl)cc1)C(=O)O` (stereo in doubt) [Example 105, [R-(R*,S*)]-3-[[[1-Carboxy-2-[4-[(2,6-dichlorophenyl)methoxy]phenyl]ethyl]amino]carbonyl]-γ-oxo-4-thiomorpholinebutanoic Acid], the IC50 in assay [1] is at least 1000 nM; in assay [2], 50 to 750 nM.

Turning to `COC(=O)[C@H](Cc1ccc(NC(=O)c2c(Cl)cccc2Cl)cc1)NC(=O)[C@H]1CSCN1S(C)(=O)=O` [Example 2, 4-[(2,6-Dichlorobenzoyl)amino]-N-[[(4S)-3-(methylsulfonyl)-4-thiazolidinyl]carbonyl]-L-phenylalanine Methyl Ester], the IC50 in assay [1] is at most 250 nM; in assay [2], 50 to 750 nM.

For `CS(=O)(=O)N1CSC[C@@H]1C(=O)N[C@@H](Cc1ccc(NC(=O)c2c(Cl)cccc2Cl)cc1)C(=O)O` [Example 3, 4-[(2,6-Dichlorobenzoyl)amino]-N-[[(4S)-3-(methylsulfonyl)-4-thiazolidinyl]carbonyl]-L-phenylalanine], the values for the IC50 in assay [1] and in assay [2] were at most 250 nM and at most 50 nM, respectively.

As for `COC(=O)[C@H](Cc1ccc(NC(=O)c2c(Cl)cccc2Cl)cc1)NC(=O)[C@H]1CSCN1C(=O)NC(C)(C)C` [Example 6, 4-[(2,6-Dichlorobenzoyl)amino]-N-[[(4S)-3-[((1,1-dimethylethyl)amino)carbonyl]-4-thiazolidinyl]carbonyl]-L-phenylalanine Methyl Ester], the IC50 in assay [1] is at least 1000 nM; in assay [2], at least 750 nM.

Regarding `CCN(CC)C(=O)N1CSC[C@@H]1C(=O)N[C@@H](Cc1ccc(NC(=O)c2c(Cl)cccc2Cl)cc1)C(=O)OC` [Example 7, 4-[(2,6-Dichlorobenzoyl)amino]-N-[[(4S)-3-[(diethylamino)carbonyl]-4-thiazolidinyl]carbonyl]-L-phenylalanine Methyl Ester], the results for the IC50 in assay [1] and in assay [2] were at least 1000 nM and 50 to 750 nM, respectively.

`O=C(Nc1ccc(C[C@H](NC(=O)[C@H]2CSCN2)C(=O)O)cc1)c1c(Cl)cccc1Cl` [Example 11, 4-[(2,6-Dichlorobenzoyl)amino]-N-[[(4S)-4-thiazolidinyl]carbonyl]-L-phenylalanine Monohydrochloride Salt]: the figures for the IC50 in assay [1] and in assay [2] were at least 1000 nM and 50 to 750 nM, respectively.

Regarding `CCS(=O)(=O)N1CSC[C@@H]1C(=O)N[C@@H](Cc1ccc(NC(=O)c2c(Cl)cccc2Cl)cc1)C(=O)OC` [Example 42], the values for the IC50 in assay [1] and in assay [2] were 250 to 1000 nM and 50 to 750 nM, respectively.

Turning to `CCS(=O)(=O)N1CSC[C@@H]1C(=O)N[C@@H](Cc1ccc(NC(=O)c2c(Cl)cccc2Cl)cc1)C(=O)O` [Example 43], the figures for the IC50 in assay [1] and in assay [2] were at most 250 nM and at most 50 nM, respectively.
